Test results published in US7241570B2, “Method of screening for agents that regulate the shedding of membrane bound proteins and methods of use” (University of Utah Research Foundation, priority 2001, dated 2007).

What was measured:
[1] = tested on: β-APP shedding from embryonic fibroblasts; assay: Release of endogenous β-APP from embryonic fibroblasts; format: cell-based, mouse
Text: TACE is the only enzyme known to shed soluble TGFα, a process enhanced by stimulation with serum or PMA. Peschon, J. J. et al. Science 282, 1281-1284 (1998). It is not known whether or not the cytoplasmic tail of TACE is required to activate TGFα shedding. To test if DGKδ affected release of TGFα, the amounts of soluble TGFα in the culture media of dgkd^−/− and wild-type embryonic fibroblasts transfected with pro-TGFα were compared. […] Supporting a role for DGKδ in stimulated TGFα shedding, PMA-induced shedding of TGFα by dgkd^−/− cells was approximately 25% that of stimulated wild-type cells (FIG. 4A, left). […] Since TACE is the only enzyme known to shed TGFα, DGKδ was likely affecting TACE. TACE is also known to cleave β-APP, so the release of endogenous β-APP from embryonic fibroblasts was examined next. Reddy, P. et al. J. Biol. Chem. 275, 14608-14614 (2000).

[2] = tested on: DGKδ and TACE; assay: Co-immunoprecipitation of DGKδ and myc-TACE overexpressed in COS7 cells; format: cell-based; conditions: COS7 cells after starvation (0.5% serum for 2 hrs)
Text: According to previous experiments, DGKδ appears to regulate the activity of TACE toward some of its substrates. Based on the data, however, it is not clear whether DGKδ directly activates TACE or indirectly affects its activity through another protein. It was hypothesized that in order to regulate TACE, DGKδ must associate with it or a complex of proteins that contains TACE. To address whether this occurs in vivo, the enzymes were overexpressed in COS7 cells and then co-immunoprecipitation analysis was performed. Myc-tagged TACE in cell lysates was immunoprecipitated with an anti-myc monoclonal antibody, and then immune complexes were analyzed for co-immunoprecipitation of DGKδ by immunoblotting. When cells were grown in normal medium (10% FBS) DGKδ clearly co-immunoprecipitated with TACE (FIG. 6 left). Controls using normal IgG for immunoprecipitation instead of anti-myc antibody, or where anti-myc was used, but myc-TACE was not included in the transfection, established the specificity of DGKδ-TACE co-immunoprecipitation. Two agents previously shown to induce TACE activity are serum factors and PMA. […] Thus, stimuli that increase TACE activity enhance an interaction between DGKδ and TACE, providing further evidence that DGKδ positively regulates TACE activity.

[3] = tested on: TNFα release from liver and spleen cell suspensions; assay: TNFα ectodomain shedding from liver and spleen cell suspensions (ELISA); format: cell-based, mouse; conditions: LPS 5 μg/mL, PMA 50 ng/mL, liver and spleen cell suspensions of newborn mice
Protocol: TACE was originally identified as the enzyme that proteolytically releases TNFα from the cell surface. Black, R. et al. Nature 385, 729-733 (1997); Moss, M. L. et al. Nature 385, 733-736 (1997). Whether deleting DGKδ affected ectodomain shedding of TNFα from liver and spleen cell suspensions was tested—where hematopoietic activity is highest in newborn mice. Tamura, K. et al. Cell 102, 221-231 (2000). To induce release on TNFα, the cell suspensions were stimulated with lipopolysaccharide (LPS, […]), PMA (50 ng/mL), or a combination of LPS (5 μg/mL) and PMA (50 ng/mL). As measured by ELISA, both agents induced release of TNFα into the medium, with LPS inducing a five-fold increase and PMA causing a three-fold increase. Combining LPS and PMA increased TNFα shedding twenty-fold. […] Reddy, P. et al. J. Biol. Chem. 275, 14608-14614 (2000)

[4] = tested on: phosphorylated ERK1 and 2; assay: ERK phosphorylation after exogenous EGF in primary embryonic fibroblasts (immunoblot densitometry); format: cell-based, mouse
Text: Whether signaling downstream of EGFR was affected in DGKδ mutant mice was also examined. Since the MAPK pathway is a major route of EGFR signaling, ERK phosphorylation was examined in cell lines developed from knockout mice. Prenzel, N., et al. Endocrine-Related Cancer 8, 11-31 (2001). In primary embryonic fibroblasts from wild-type mice, exogenous EGF caused a 2.2 fold increase in phosphorylated ERK1 and 2 as judged by densitometry of the immunoblot bands (FIG. 3). […] Activation of EGFR signaling is known to mediate stress fiber formation induced by serum factors. Prenzel, N., et al. Endocrine-Related Cancer 8, 11-31 (2001). […] Thus, whether DGKδ affects the activity of TACE was examined next.

[5] = tested on: phosphatidylinositol 5-kinases; conditions: cited from earlier work

For CCCCCCCCCCCCCC(=O)O[C@@H]1[C@@H](C)[C@@]2(O)[C@@H](C=C(CO)C[C@]3(O)C(=O)C(C)=C[C@@H]23)[C@@H]2C(C)(C)[C@]12OC(C)=O [PMA], which “increase in β-APP shedding” value ([1]; dgkd+/+ embryonic fibroblasts) is on record?
Its value is 6-8 fold.

What about the “increase in β-APP shedding” value ([1]; dgkd−/− embryonic fibroblasts) of the same compound?
Its value is “moderate increase”.

What about the “co-immunoprecipitation of DGKδ and TACE” value [2] of the same compound?
The value was “significantly increased”.

What about the “increase in release of TNFα into the medium” value [3] of the same compound?
Its value is “three-fold”.

With EGF: exogenous EGF, EGF receptor ligand as the compound, how does the “increase in phosphorylated ERK1 and 2” value ([4]; primary embryonic fibroblasts from DGKδ null mice) read?
Its value is 2.1 fold.

And the “increase in phosphorylated ERK1 and 2” value ([4]; primary embryonic fibroblasts from wild-type mice, densitometry of immunoblot bands)?
The value was 2.2 fold.

With phosphatidic acid [PA] as the compound, how does the “activity of phosphatidylinositol 5-kinases in the presence of PA” value [5] read?
Its value is 8-14 fold.

For lipopolysaccharide [LPS], which “increase in release of TNFα into the medium” value [3] is on record?
The value was “five-fold”.
